Measurements: ChEMBL document CHEMBL1201862, “PubChem BioAssay data set” (2004)
Calls of active or inactive are those of the source.

Legend:
[1] = target: T1, Oxysterols receptor LXR-beta (Homo sapiens, UniProt P55055); type: functional, cell-based
T1 sequence (P55055 whole entry): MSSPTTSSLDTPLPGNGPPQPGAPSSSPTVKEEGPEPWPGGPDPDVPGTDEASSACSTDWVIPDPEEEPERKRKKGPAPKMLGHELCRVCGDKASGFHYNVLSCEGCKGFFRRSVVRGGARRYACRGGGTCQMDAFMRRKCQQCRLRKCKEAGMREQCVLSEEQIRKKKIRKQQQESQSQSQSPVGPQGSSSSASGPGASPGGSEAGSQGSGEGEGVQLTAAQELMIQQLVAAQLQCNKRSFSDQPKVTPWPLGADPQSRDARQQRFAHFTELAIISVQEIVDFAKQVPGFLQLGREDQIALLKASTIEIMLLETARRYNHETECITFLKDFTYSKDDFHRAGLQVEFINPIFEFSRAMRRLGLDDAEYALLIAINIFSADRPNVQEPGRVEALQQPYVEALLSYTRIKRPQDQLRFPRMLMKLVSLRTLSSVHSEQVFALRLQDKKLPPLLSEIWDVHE

[2] = target: T2, Heat shock factor protein 1 (Mus musculus, UniProt P38532); experiment: inhibition of MG132-induced HSE-luciferase signal, confirmation, cell-based, NIH3T3, luminescence, dose retest (AID 2382); type: functional;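 further: NIH3T3 fibroblasts with HSF1-driven luciferase reporter stressed by proteasome inhibitor MG132; luminescence from HSF1-driven luciferase expression after 8 hours of MG132 stress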
T2 sequence (P38532 whole entry): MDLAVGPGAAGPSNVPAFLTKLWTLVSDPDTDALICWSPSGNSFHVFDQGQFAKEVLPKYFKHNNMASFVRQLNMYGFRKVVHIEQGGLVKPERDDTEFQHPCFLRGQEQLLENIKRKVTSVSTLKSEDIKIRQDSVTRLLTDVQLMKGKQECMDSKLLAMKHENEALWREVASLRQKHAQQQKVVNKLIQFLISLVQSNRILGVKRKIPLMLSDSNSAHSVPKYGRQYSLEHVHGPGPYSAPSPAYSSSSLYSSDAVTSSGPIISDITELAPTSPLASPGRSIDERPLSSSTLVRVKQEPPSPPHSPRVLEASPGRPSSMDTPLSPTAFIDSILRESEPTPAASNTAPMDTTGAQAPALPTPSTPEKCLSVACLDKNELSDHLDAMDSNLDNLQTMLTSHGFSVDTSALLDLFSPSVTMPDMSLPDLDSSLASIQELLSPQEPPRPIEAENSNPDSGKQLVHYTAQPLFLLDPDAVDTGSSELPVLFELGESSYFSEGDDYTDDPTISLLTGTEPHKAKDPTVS

[3] = THP-1 cell cytotoxicity, dose response, cytotoxicity control for non-replicating M. tuberculosis project (AID 489025); type: functional
[4] = Vero E6 cell cytotoxicity, dose response, cytotoxicity control for non-replicating M. tuberculosis project, secondary assay (AID 492998); type: functional, VeroE6; conditions: Vero C1008
Protein skinhead-1 = target: T3, Protein skinhead-1 (Caenorhabditis elegans, UniProt P34707); type: functional
T3 sequence (P34707 whole entry): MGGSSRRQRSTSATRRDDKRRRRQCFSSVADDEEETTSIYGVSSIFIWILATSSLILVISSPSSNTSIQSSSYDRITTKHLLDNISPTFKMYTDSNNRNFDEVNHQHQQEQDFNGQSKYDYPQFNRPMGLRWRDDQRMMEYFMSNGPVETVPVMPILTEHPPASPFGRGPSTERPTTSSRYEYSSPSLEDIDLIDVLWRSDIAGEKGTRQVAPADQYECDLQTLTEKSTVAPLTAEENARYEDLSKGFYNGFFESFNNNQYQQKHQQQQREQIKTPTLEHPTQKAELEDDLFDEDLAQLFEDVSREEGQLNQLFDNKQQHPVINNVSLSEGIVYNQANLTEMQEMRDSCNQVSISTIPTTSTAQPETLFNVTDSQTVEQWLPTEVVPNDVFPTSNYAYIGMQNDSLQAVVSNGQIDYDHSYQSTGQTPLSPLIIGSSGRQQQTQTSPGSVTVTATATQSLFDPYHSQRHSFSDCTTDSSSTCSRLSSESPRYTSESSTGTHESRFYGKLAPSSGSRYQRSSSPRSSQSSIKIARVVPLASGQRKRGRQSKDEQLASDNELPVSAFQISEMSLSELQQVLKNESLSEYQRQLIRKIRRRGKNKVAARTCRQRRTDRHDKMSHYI

[5] = Vero cell cytotoxicity, dose response, cytotoxicity control for Vif-APOBEC3G degradation inhibitor project, Vero cells (AID 1117358); type: functional; conditions: Human immunodeficiency virus 1, Vero
[6] = target: T1, Oxysterols receptor LXR-beta; type: functional, cell-based; remark: listed apart in the source
[7] = target: E3 ubiquitin-protein ligase Mdm2 (Homo sapiens, UniProt Q00987); experiment: enhancers of MDM2-luciferase reporter signal, concentration-effect titration, project on inhibitors of MDM2 ubiquitin ligase, cellular assay, luminescent readout, 384-well plate format (AID 1394); type: functional;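 further: MDM2 E3 inhibitors raise luminescence so EC50 is for signal enhancement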
E3 ubiquitin-protein ligase Mdm2, sequence (Q00987 whole entry): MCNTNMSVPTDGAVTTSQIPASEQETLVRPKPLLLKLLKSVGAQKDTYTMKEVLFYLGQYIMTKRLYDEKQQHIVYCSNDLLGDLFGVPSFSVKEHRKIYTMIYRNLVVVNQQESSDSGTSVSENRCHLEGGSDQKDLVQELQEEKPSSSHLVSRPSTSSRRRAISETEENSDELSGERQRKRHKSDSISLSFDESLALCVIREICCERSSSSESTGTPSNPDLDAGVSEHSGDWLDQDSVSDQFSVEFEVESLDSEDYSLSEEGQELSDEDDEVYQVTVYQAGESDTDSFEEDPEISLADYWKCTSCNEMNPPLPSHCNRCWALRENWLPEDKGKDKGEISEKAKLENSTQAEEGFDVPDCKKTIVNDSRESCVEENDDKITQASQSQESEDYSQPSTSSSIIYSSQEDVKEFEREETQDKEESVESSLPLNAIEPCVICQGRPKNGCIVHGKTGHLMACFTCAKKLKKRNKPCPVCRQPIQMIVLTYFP

Genome polyprotein = Genome polyprotein (dengue virus type 2, UniProt P29990); experiment: Dengue-2 NS5 methyltransferase inhibitors, primary screen, biochemical, confirmation dose response (AID 588689); type: functional
Genome polyprotein, sequence (P29990 2492-3391 limits assumed): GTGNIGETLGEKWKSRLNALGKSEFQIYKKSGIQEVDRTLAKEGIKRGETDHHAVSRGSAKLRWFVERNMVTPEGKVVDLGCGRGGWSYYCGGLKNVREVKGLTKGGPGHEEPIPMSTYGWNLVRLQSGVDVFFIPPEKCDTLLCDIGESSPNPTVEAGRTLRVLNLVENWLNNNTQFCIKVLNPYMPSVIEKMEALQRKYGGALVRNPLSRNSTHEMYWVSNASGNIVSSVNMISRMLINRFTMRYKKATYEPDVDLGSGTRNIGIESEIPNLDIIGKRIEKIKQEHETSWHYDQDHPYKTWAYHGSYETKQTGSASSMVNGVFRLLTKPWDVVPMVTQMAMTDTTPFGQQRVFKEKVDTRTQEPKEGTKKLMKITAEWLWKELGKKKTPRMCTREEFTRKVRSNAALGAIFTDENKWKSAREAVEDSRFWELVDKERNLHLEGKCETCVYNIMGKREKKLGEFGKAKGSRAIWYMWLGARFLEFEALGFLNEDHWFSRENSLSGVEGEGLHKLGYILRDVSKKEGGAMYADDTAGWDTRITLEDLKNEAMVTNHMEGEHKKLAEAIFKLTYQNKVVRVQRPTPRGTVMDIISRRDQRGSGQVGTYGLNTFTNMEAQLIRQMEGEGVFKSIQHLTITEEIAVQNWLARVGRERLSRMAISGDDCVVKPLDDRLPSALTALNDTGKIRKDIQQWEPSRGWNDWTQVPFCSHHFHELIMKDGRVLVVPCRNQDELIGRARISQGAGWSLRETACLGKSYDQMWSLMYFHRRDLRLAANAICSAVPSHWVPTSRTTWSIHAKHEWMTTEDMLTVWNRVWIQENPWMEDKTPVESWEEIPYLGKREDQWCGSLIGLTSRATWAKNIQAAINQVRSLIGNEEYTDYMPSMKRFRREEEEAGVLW

[8] = target: Glutathione-S-transferase (Schistosoma japonicum, UniProt Q26513); experiment: biotin-GST/anti-GST TR-FRET signal inhibitors, dose response, artefact control for Vif-APOBEC3G degradation inhibitor project, biochemical (AID 1117362); type: functional
Glutathione-S-transferase, sequence (Q26513 whole entry, the tested form may be a part): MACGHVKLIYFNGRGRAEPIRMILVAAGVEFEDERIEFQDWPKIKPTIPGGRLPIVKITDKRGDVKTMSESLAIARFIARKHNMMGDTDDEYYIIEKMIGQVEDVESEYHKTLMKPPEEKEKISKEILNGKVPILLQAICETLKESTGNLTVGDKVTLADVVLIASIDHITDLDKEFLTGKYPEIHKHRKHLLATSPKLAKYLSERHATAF

[9] = inhibitors of HIV Env-driven cell fusion, dose response, cherry-pick (AID 652057); type: functional, cell-based
[10] = CEM21 lymphoblast cell cytotoxicity, dose response, cytotoxicity control for viral fusion inhibitor project, CellTiter-Glo luminescence, cherry-picked (AID 652042); type: functional, cell-based;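 further: potency for signal decrease meaning cytotoxicity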
[11] = ZM109 Env clade C HIV-1 fusion inhibitors, dose response, HeLa effector, CEM target cells, luciferase, cherry-pick (AID 652058); type: functional, cell-based
[12] = off-target signal loss in HeLa-CEM21 co-culture – HeLa F-luc CTL cells, cherry-picked, counter-screen for HIV-1 Env fusion inhibitor project, dose response (AID 652040); type: functional, cell-based;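 further: potency for signal decrease marking cytotoxic or nonspecific inhibition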
[13] = inhibitors of clade B AD8 Env fusion, dose response, cell-based, cherry-pick (AID 652062); type: functional;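 further: luciferase signal from cell-cell fusion driven by HIV-1 clade B AD8 Env; potency is for inhibitors of fusion seen as a drop in luminescence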
[14] = P. falciparum 3D7-ScDHODH growth inhibitors, dose response, SYBR Green, dry powder samples (AID 1159570); type: functional, cell-based;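 further: parasite growth measured after 72 hours of compound exposure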
[15] = HepG2 cell cytotoxicity, dose response, cytotoxicity control, plate reader, dry powder samples (AID 1159569); type: functional, cell-based;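 further: inhibitor potency with signal falling toward the positive control level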
[16] = P. falciparum Dd2 growth inhibitors, dose response, SYBR Green, cherry-picked samples (AID 1159567); type: functional, cell-based
[17] = P. falciparum Dd2 growth inhibitors, dose response, SYBR Green, dry powder samples (AID 1159566); type: functional, cell-based;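 further: potency for growth inhibition with lower SYBR green DNA signal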
[18] = P. falciparum ATP4 D1247Y mutant growth inhibitors, dose response, NITD609-resistant line, SYBR Green, dry powder (AID 1159571); type: functional, cell-based;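 further: parasites synchronized at ring stage by sorbitol before testing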
HEK293 [19] = experiment: cells; conditions: Homo sapiens
HEK293 [20] = experiment: cells; conditions: Homo sapiens; remark: listed apart in the source
[21] = target: T4, Low molecular weight phosphotyrosine protein phosphatase (Homo sapiens, UniProt P24666); type: functional; conditions: read-out: IC50_Mean;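 further: Dose-response confirmation assay measuring inhibition of LMPTP enzyme activity by fluorescence intensity read-out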
T4 sequence (P24666 whole entry): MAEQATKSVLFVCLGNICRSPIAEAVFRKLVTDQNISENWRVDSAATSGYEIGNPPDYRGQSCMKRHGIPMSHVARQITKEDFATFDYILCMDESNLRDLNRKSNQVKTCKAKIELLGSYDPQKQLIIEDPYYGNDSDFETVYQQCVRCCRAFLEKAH

Caspase-6 = target: T5, Caspase-6 (Homo sapiens, UniProt P55212); experiment: human caspase-6 inhibitors, dose response, biochemical, VEID-R110 fluorescence, cherry-pick (AID 720632)
T5 sequence (P55212 whole entry): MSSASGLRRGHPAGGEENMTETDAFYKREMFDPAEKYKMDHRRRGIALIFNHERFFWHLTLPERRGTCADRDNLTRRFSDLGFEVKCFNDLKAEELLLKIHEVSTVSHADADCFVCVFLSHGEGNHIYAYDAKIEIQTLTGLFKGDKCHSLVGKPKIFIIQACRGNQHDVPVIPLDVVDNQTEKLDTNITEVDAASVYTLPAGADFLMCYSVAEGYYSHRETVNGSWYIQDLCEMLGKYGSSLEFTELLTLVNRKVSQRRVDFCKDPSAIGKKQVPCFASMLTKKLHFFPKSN

Caspase-7 = Caspase-7 (Homo sapiens, UniProt P55210); experiment: human caspase-7 inhibitors, dose response, selectivity assay for caspase-6 inhibitor project, biochemical, DEVD-R110 fluorescence, cherry-pick (AID 743295)
Caspase-7, sequence (P55210 24-198 limits assumed): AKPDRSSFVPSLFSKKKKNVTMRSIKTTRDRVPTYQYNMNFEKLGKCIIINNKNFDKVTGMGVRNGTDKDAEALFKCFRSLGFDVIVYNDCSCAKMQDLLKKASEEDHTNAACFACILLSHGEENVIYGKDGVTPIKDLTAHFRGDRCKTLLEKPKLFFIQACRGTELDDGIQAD
Caspase-7, sequence (P55210 207-303 limits assumed): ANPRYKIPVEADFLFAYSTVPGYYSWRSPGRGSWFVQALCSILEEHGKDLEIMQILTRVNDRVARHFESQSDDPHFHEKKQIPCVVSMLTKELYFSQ

[22] = ADAM10 inhibitors, peptide cleavage, dose response, biochemical, QFRET (AID 743254);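 further: ADAM10 enzyme with the DM2 quenched FRET peptide as substrate; EDANS fluorescence gain as the protease cuts the substrate; inhibitor potency against ADAM10 proteolytic activity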
[23] = target: Disintegrin and metalloproteinase domain-containing protein 17 (Homo sapiens, UniProt P78536); experiment: ADAM17 protease inhibitors, dose response, counter-screen for ADAM10 exosite inhibitor project, biochemical, quenched FRET substrate (AID 743253)
Disintegrin and metalloproteinase domain-containing protein 17, sequence (P78536 whole entry, the tested form may be a part): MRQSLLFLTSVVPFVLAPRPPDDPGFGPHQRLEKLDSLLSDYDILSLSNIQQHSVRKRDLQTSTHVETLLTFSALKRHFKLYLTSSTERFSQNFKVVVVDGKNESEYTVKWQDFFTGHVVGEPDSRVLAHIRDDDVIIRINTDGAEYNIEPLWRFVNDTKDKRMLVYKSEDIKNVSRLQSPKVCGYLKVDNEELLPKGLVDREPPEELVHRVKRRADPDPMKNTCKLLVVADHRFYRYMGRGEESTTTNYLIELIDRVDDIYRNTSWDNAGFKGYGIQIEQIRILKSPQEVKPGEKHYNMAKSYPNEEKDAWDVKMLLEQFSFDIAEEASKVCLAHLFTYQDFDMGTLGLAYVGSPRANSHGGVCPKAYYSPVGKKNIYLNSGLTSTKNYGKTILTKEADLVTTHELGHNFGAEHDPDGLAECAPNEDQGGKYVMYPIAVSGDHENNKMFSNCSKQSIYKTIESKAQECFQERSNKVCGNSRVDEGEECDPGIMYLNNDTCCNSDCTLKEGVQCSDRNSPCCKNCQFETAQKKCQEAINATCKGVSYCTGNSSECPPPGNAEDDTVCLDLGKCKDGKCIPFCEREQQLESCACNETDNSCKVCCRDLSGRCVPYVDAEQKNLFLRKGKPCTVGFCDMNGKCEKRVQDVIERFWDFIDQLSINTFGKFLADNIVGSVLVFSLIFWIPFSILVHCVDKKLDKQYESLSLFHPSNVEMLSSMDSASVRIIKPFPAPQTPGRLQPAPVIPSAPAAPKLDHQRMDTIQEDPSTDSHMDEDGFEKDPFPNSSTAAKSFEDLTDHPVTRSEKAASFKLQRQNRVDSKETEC

Leucine aminopeptidase = target: T6, Leucine aminopeptidase (Plasmodium falciparum 3D7, UniProt Q8IL11); experiment: P. falciparum M17LAP inhibitors, primary screen, biochemical, fluorogenic H-Leu-NHMec substrate, 1536-well (AID 1619); type: functional
T6 sequence (Q8IL11 whole entry): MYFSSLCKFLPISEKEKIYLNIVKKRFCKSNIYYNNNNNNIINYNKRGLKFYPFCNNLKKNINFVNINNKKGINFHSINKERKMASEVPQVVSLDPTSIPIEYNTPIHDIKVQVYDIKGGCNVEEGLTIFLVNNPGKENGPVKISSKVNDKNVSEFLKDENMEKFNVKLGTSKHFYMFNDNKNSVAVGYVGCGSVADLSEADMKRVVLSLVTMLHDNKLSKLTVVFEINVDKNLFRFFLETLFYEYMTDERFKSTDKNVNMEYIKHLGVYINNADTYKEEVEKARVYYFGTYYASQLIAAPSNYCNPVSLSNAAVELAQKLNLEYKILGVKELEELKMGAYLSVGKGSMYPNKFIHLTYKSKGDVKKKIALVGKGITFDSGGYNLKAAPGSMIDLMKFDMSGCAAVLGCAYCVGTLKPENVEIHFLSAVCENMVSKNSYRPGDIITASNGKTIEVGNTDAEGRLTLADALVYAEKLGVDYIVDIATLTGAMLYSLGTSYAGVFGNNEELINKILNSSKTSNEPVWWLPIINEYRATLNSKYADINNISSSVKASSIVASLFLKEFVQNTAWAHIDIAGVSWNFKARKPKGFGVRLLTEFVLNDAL

[24] = target: Bifunctional protein GlmU (Mycobacterium tuberculosis, UniProt P9WMN3); experiment: Inhibitors of Mycobacterial Glucosamine-1-phosphate acetyl transferase (GlmU). Secondary screen.; design: species or system Mycobacterium tuberculosis H37Rv
Bifunctional protein GlmU, sequence (P9WMN3 whole entry): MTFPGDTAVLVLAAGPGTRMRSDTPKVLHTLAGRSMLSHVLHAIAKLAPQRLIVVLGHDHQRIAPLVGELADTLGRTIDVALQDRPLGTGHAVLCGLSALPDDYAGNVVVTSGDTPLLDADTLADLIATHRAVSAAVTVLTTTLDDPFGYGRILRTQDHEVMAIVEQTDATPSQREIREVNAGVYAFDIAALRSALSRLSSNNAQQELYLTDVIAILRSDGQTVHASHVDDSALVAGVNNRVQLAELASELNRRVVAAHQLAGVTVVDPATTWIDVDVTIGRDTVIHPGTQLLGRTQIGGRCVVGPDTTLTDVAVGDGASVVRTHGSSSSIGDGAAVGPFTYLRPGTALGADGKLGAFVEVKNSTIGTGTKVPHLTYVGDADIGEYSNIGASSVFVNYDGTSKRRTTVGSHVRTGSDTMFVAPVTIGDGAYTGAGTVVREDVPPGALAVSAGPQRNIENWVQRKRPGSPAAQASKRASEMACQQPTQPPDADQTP

[25] = HepG2 cell cytotoxicity, dose response, cytotoxicity control, cherry-picked samples (AID 1159577); type: functional, cell-based
[26] = target: G-protein coupled receptor 35 (Homo sapiens, UniProt Q9HC97); experiment: GPR35 antagonists blocking zaprinast-driven arrestin recruitment, primary screen, imaging, U2OS, beta-arrestin-GFP, zaprinast agonist (AID 2058); type: functional;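 further: antagonist potency meaning inhibition of agonist-induced arrestin redistribution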
G-protein coupled receptor 35, sequence (Q9HC97 whole entry): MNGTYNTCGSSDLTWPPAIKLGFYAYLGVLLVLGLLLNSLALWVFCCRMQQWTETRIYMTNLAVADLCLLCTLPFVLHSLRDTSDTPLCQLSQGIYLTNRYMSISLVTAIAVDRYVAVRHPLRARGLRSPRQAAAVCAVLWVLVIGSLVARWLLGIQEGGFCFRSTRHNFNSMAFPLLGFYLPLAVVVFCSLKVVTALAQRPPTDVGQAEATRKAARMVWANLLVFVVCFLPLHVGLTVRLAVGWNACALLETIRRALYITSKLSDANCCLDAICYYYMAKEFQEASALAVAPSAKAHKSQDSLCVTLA

[27] = target: G-protein coupled receptor 55 (Homo sapiens, UniProt Q9Y2T6); experiment: GPR55 antagonists blocking LPI-driven arrestin recruitment, primary screen, imaging, U2OS, beta-arrestin-GFP, LPI agonist (AID 2013); type: functional;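 further: antagonist potency measured as reduced agonist-driven arrestin aggregation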
G-protein coupled receptor 55, sequence (Q9Y2T6 whole entry): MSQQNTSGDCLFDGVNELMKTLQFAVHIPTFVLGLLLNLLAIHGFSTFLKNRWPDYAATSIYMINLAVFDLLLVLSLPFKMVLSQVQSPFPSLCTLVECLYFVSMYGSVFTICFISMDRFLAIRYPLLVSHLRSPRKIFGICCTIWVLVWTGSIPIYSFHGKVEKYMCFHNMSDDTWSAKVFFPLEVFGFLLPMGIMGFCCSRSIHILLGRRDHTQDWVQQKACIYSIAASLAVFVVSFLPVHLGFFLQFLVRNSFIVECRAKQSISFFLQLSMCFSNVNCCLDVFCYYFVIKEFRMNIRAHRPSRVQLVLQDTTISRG

SMILES: COc1cccc(-c2nc3ccccc3s2)c1
- EC50 [1]: > 67.5 µM (inactive)

SMILES: CCN1C(C(=O)c2ccccc2)=C(O)c2ccccc2S1(=O)=O
- EC50 [2]: > 195 µM (not active)
- CC50 [3]: 26.2 µM (active)
- CC50 [4]: 19.2 µM (active)
- IC50 (Protein skinhead-1): > 100 µM (inactive)
- CC50 [5]: 24.3 µM (active)

SMILES: c1ccc(-c2noc(-c3cccc4ccccc34)n2)nc1
- EC50 [6]: > 67.5 µM (inactive)
- EC50 (cells): > 67.5 µM (inactive)

SMILES: COc1ccc(Nc2nc(C(=O)N3CCc4ccccc4C3)cs2)cc1
- EC50 [7]: 12.3 µM (not active)

SMILES: c1ccc(CSc2ccc(-c3cccs3)nn2)cc1
- EC50 [1]: > 67.5 µM (inactive)

SMILES: O=C1CC=C2C3CC4N(CCC45c4cc(O)c(O)cc4N1C25)CC3=CCBr (stereo not drawn)
- IC50 (Genome polyprotein): 31.5 µM (active)
- IC50 [8]: 3.05 µM (active)

SMILES: Cc1ccc(S(=O)(=O)N(C)C[C@@H]2OCc3ccccc3-c3c(n(C)c4ccccc34)C(=O)N([C@H](C)CO)C[C@@H]2C)cc1
- AC50 [9]: 1.87 µM (active)
- AC50 [10]: 29.6 µM (active)
- AC50 [11]: 2 µM (active)
- AC50 [12]: 1.66 µM (active)
- AC50 [13]: 2.16 µM (active)
- AC50 [14]: 0.151 µM (active)
- AC50 [15]: 52.3 µM (active)
- AC50 [16]: 0.676 µM (active)
- AC50 [17]: 0.0655 µM (active)
- AC50 [18]: 0.106 µM (active)
- EC50 (HEK293 [19]): > 59.6 µM (inactive)
- EC50 (HEK293 [20]): > 59.6 µM (inactive)

SMILES: CCOC(=O)c1sc2nc(OCCN3CCOCC3)cc(C)c2c1N
- IC50 [21]: 61.1 µM (inactive)
- AC50 (Caspase-6): 2.18 µM (active)
- AC50 (Caspase-7): 45.2 µM (active)

SMILES: CCCCCCCCNS(=O)(=O)/C=C/c1ccccc1CNC(=O)OC(C)(C)C
- IC50 [22]: > 7.73 µM (active)
- IC50 [23]: > 69.6 µM (inactive)

SMILES: O=C(O)c1cccc(-c2ccc(/C=N/NC(=O)c3cccnc3)o2)c1
- IC50 (Leucine aminopeptidase): 37.5 µM (active)
- IC50 [24]: 185 µM (active)

SMILES: C[C@H]1CN([C@@H](C)CO)C(=O)c2ccccc2-c2ccccc2CO[C@H]1CN(C)Cc1ccc(C(F)(F)F)cc1
- AC50 [16]: 3.03 µM (active)
- AC50 [25]: > 42 µM (inactive)

SMILES: CCC(=O)N1CC(=O)N2[C@@H](CO)[C@H](c3ccc(C#CCc4ccccc4)cc3)[C@@H]2C1
- AC50 [16]: 11.4 µM (active)
- AC50 [25]: 25.2 µM (active)

SMILES: O=C1C=CC(=O)N1CCCCCCN1C(=O)C=CC1=O
- IC50 [26]: 6.23 µM (active)
- IC50 [27]: 9.79 µM (active)
- IC50 [24]: 118 µM (active)
